Starred links: 1 amine or outer side, 2 acyl side, 3 side chain; linkers in the order of their positions; H or OH if unused. Positions of bridges follow the written chain, without caps; N, C: chain ends. Non-standard residues stand in square brackets, D forms with d. Residues, ends and D or L forms follow the SMILES beside them. ξ: configuration not given here. *: point of attachment. X3 = O=C(O)CN1CCN(CC(=O)O)CCN(CC(=O)NCCCOCCOCCOCCCN*)CCN(CC(=O)O)CC1; DOTA = O=C(O)CN1CCN(CC(=O)O)CCN(CC(=O)*)CCN(CC(=O)O)CC1; Trp(5-Cl) = N[C@@H](Cc1c[nH]c2ccc(Cl)cc12)C(=O)O; Trp(5-OH) = N[C@@H](Cc1c[nH]c2ccc(O)cc12)C(=O)O; ξTrp(5-Me) = Cc1ccc2[nH]cc(CC(N)C(=O)O)c2c1; 1Nal = N[C@@H](Cc1cccc2ccccc12)C(=O)O; mXylylene = c1cc(C[*:1])cc(C[*:2])c1; Bta = N[C@@H](Cc1csc2ccccc12)C(=O)O; Trx = NC[C@H]1CC[C@H](C(=O)O)CC1; tBuAla = CC(C)(C)C[C@H](N)C(=O)O; Suc = O=C(CCC(=O)[*:2])[*:1]; 3Amb = NCc1cccc(C(=O)O)c1; Isovaleryl = CC(C)CC(=O)*; Sar = CNCC(=O)O A value given as a limit tells only on which side of the number the result lay.

The test has as its target T1, CAIX-expressing human HT-29 colorectal cancer cells (Homo sapiens, UniProt Q16790).
T1 construct: CAIX-expressing human HT-29 colorectal cancer cells; host or cells: HT-29 human colorectal cancer cells
The experiment in a line: FACS binding assay (IC50 determination, competition with tracer 3BP-2776 or 3BP-4149). To be noted: FACS competition on HT-29 cells, Tracer ID 3BP-2776 (10 nM, biotin-labeled), 4° C., 1 hour; read-out: pIC50 category (activity) (converted). Here is the method: In order to determine binding of compounds according to the present invention to CAIX-expressing cells, a FACS binding assay was established.
CAIX-expressing human HT-29 colorectal cancer cells (DSMZ, RRID: CVCL_0320) were cultured in McCoys's 5A modified medium (Biochrom, #F1015) including 10% fetal calf serum (FCS), 2 mM L-glutamine, 100 U/ml penicillin and 100 μg/mL streptomycin. Cells were detached with Accutase (Biolegend, #423201) and washed in FACS buffer (PBS including 1% FCS). Cells were diluted in FACS buffer to a final concentration of 500.000 cells per ml. 200 μL of the cell suspension were transferred to a u-shaped non-binding 96-well plate (Greiner) and cells were washed in ice-cold FACS buffer.
When biotinylated compounds were used an additional incubation step with 1 μg/mL APC-Streptavidin (Miltenyi; #130-106-791) in 50 μL FACS buffer for 30 minutes on ice was performed.
Cells were washed twice with ice-cold FACS buffer and analyzed in an Attune NxT flow cytometer (Thermo Fisher). Median fluorescence intensities (MFI) of the APC/Cy5-channel were calculated by Attune NxT software. MFI values were plotted against peptide concentration and four parameter logistic (4PL) curve fitting and EC50/pEC50 or IC50/pIC50 calculations were performed using ActivityBase software.
(A flow cytometer gives signals particle by particle.)
On to `CC(C)CC(=O)N[C@H](C(=O)N[C@@H](Cc1ccc(O)cc1)C(=O)N[C@H]1CSCc2cccc(c2)CSC[C@@H](C(N)=O)NC(=O)[C@H](CCC(N)=O)NC(=O)[C@H](Cc2c[nH]c3ccccc23)NC(=O)[C@H]([C@@H](C)O)NC(=O)[C@H](CC(C)C)NC(=O)[C@H](Cc2c[nH]c3ccccc23)NC(=O)[C@H](CC(=O)O)NC(=O)CNC(=O)[C@H](CCC(=O)O)NC1=O)C(C)C` [3BP-3111] (Isovaleryl-VYCEGDWLTWQC-NH2; linker 3-12 via mXylylene), for which the IC50 was less than 0.01 µM.

For `CC(C)C[C@@H]1NC(=O)[C@H](Cc2c[nH]c3ccccc23)NC(=O)[C@H](CC(=O)O)NC(=O)[C@@H](C)NC(=O)[C@H](CCC(=O)O)NC(=O)[C@@H](NC(=O)[C@H](Cc2ccc(O)cc2)NC(=O)[C@@H](NC(=O)CCC(=O)NCCCOCCOCCOCCCNC(=O)CN2CCN(CC(=O)O)CCN(CC(=O)O)CCN(CC(=O)O)CC2)C(C)C)CSCc2cccc(c2)CSC[C@@H](C(N)=O)NC(=O)[C@H](CCC(N)=O)NC(=O)[C@H](Cc2c[nH]c3ccccc23)NC(=O)[C@H]([C@@H](C)O)NC1=O` [3BP-3270] ({X3-Suc}-VYCE[dA]DWLTWQC-NH2; linker 3-12 via mXylylene), the IC50 is less than 0.01 µM. `CC(C)C[C@@H]1NC(=O)[C@H](Cc2c[nH]c3ccccc23)NC(=O)[C@H](CC(=O)O)NC(=O)CN(C)C(=O)[C@H](CCC(=O)O)NC(=O)[C@@H](NC(=O)[C@H](Cc2ccc(O)cc2)NC(=O)[C@@H](NC(=O)CCC(=O)NCCCOCCOCCOCCCNC(=O)CN2CCN(CC(=O)O)CCN(CC(=O)O)CCN(CC(=O)O)CC2)C(C)C)CSCc2cccc(c2)CSC[C@@H](C(N)=O)NC(=O)[C@H](C)NC(=O)[C@H](Cc2c[nH]c3ccccc23)NC(=O)[C@H]([C@@H](C)O)NC1=O` [3BP-3278] ({X3-Suc}-VYCE[Sar]DWLTWAC-NH2; linker 3-12 via mXylylene): the IC50 is 0.01 to 0.0794 µM. `CC(=O)N[C@H](C(=O)N[C@@H](Cc1ccc(O)cc1)C(=O)N[C@H]1CSCc2cccc(c2)CSC[C@@H](C(N)=O)NC(=O)CNC(=O)[C@H](Cc2c[nH]c3ccccc23)NC(=O)[C@H]([C@@H](C)O)NC(=O)[C@H](CC(C)C)NC(=O)[C@H](Cc2c[nH]c3ccccc23)NC(=O)[C@H](CC(=O)O)NC(=O)[C@@H](C)NC(=O)[C@H](CCC(=O)O)NC1=O)C(C)C` [3BP-3284] (Ac-VYCE[dA]DWLTWGC-NH2; linker 3-12 via mXylylene): the IC50 is less than 0.01 µM. In the case of `CC(=O)N[C@H](C(=O)N[C@@H](Cc1ccc(O)cc1)C(=O)N[C@H]1CSCc2cccc(c2)CSC[C@@H](C(N)=O)NC(=O)[C@H](CCC(N)=O)NC(=O)[C@H](Cc2c[nH]c3ccccc23)NC(=O)[C@H]([C@@H](C)O)NC(=O)[C@H](CC(C)C)NC(=O)C(Cc2c[nH]c3ccc(C)cc23)NC(=O)[C@H](CC(=O)O)NC(=O)CN(C)C(=O)[C@H](CCC(=O)O)NC1=O)C(C)C` (stereo partly shown) [3BP-3290] (Ac-VYCE[Sar]D[ξTrp(5-Me)]LTWQC-NH2; linker 3-12 via mXylylene), the IC50 was less than 0.01 µM. To `CC(=O)N[C@H](C(=O)N[C@@H](Cc1ccc(O)cc1)C(=O)N[C@H]1CSCc2cccc(c2)CSC[C@@H](C(N)=O)NC(=O)CNC(=O)[C@H](Cc2c[nH]c3ccccc23)NC(=O)[C@H]([C@@H](C)O)NC(=O)[C@H](CC(C)C)NC(=O)[C@H](Cc2c[nH]c3ccccc23)NC(=O)[C@H](CC(=O)O)NC(=O)CN(C)C(=O)[C@H](CCC(=O)O)NC1=O)C(C)C` [3BP-3304] (Ac-VYCE[Sar]DWLTWGC-NH2; linker 3-12 via mXylylene) belongs less than 0.01 µM. On to `CC(=O)N[C@H](C(=O)N[C@@H](Cc1ccc(O)cc1)C(=O)N[C@H]1CSCc2cccc(c2)CSC[C@@H](C(N)=O)NC(=O)[C@H](CCC(N)=O)NC(=O)[C@H](Cc2c[nH]c3ccccc23)NC(=O)CNC(=O)[C@H](CC(C)C)NC(=O)[C@H](Cc2c[nH]c3ccccc23)NC(=O)[C@H](CC(=O)O)NC(=O)CN(C)C(=O)[C@H](CCC(=O)O)NC1=O)C(C)C` [3BP-3307] (Ac-VYCE[Sar]DWLGWQC-NH2; linker 3-12 via mXylylene), for which the IC50 is less than 0.01 µM.

Regarding `CC(=O)N[C@H](C(=O)N[C@@H](Cc1ccc(O)cc1)C(=O)N[C@H]1CSCc2cccc(c2)CSC[C@@H](C(N)=O)NC(=O)[C@H](CCC(N)=O)NC(=O)[C@H](Cc2c[nH]c3ccccc23)NC(=O)[C@@H](C)NC(=O)[C@H](CC(C)C)NC(=O)[C@H](Cc2c[nH]c3ccccc23)NC(=O)[C@H](CC(=O)O)NC(=O)CN(C)C(=O)[C@H](CCC(=O)O)NC1=O)C(C)C` [3BP-3309] (Ac-VYCE[Sar]DWL[dA]WQC-NH2; linker 3-12 via mXylylene), the IC50 was 0.1 to 0.794 µM. Regarding `CC(=O)N[C@H](C(=O)N[C@@H](Cc1ccc(O)cc1)C(=O)N[C@H]1CSCc2cccc(c2)CSC[C@@H](C(N)=O)NC(=O)[C@H](CCC(N)=O)NC(=O)[C@H](Cc2c[nH]c3ccccc23)NC(=O)[C@H]([C@@H](C)O)NC(=O)[C@H](CC(C)C)NC(=O)[C@H](Cc2c[nH]c3ccc(O)cc23)NC(=O)[C@H](CC(=O)O)NC(=O)CN(C)C(=O)[C@H](CCC(=O)O)NC1=O)C(C)C` [3BP-3310] (Ac-VYCE[Sar]D[Trp(5-OH)]LTWQC-NH2; linker 3-12 via mXylylene), the IC50 is 0.1 to 0.794 µM. Then `CC(=O)N[C@H](C(=O)N[C@@H](Cc1ccc(O)cc1)C(=O)N[C@H]1CSCc2cccc(c2)CSC[C@@H](C(N)=O)NC(=O)[C@H](CCC(N)=O)NC(=O)[C@H](Cc2c[nH]c3ccc(Cl)cc23)NC(=O)[C@H]([C@@H](C)O)NC(=O)[C@H](CC(C)C)NC(=O)[C@H](Cc2c[nH]c3ccccc23)NC(=O)[C@H](CC(=O)O)NC(=O)CN(C)C(=O)[C@H](CCC(=O)O)NC1=O)C(C)C` [3BP-3312] (Ac-VYCE[Sar]DWLT[Trp(5-Cl)]QC-NH2; linker 3-12 via mXylylene), with 0.1 to 0.794 µM; and `CC(=O)N[C@H](C(=O)N[C@@H](Cc1ccc(O)cc1)C(=O)N[C@H]1CSCc2cccc(c2)CSC[C@@H](C(N)=O)NC(=O)[C@H](CCC(N)=O)NC(=O)[C@H](Cc2c[nH]c3ccccc23)NC(=O)[C@H]([C@@H](C)O)NC(=O)[C@H](CC(C)C)NC(=O)[C@H](Cc2cccc3ccccc23)NC(=O)[C@H](CC(=O)O)NC(=O)CN(C)C(=O)[C@H](CCC(=O)O)NC1=O)C(C)C` [3BP-3314] (Ac-VYCE[Sar]D[1Nal]LTWQC-NH2; linker 3-12 via mXylylene), with less than 0.01 µM; and `CC(=O)N[C@H](C(=O)N[C@@H](Cc1ccc(O)cc1)C(=O)N[C@H]1CSCc2cccc(c2)CSC[C@@H](C(N)=O)NC(=O)[C@H](CCC(N)=O)NC(=O)[C@H](Cc2csc3ccccc23)NC(=O)[C@H]([C@@H](C)O)NC(=O)[C@H](CC(C)C)NC(=O)[C@H](Cc2c[nH]c3ccccc23)NC(=O)[C@H](CC(=O)O)NC(=O)CN(C)C(=O)[C@H](CCC(=O)O)NC1=O)C(C)C` [3BP-3315] (Ac-VYCE[Sar]DWLT[Bta]QC-NH2; linker 3-12 via mXylylene), with 0.1 to 0.794 µM. Take `CC(=O)N[C@H]1CSCc2cccc(c2)CSC[C@@H](C(N)=O)NC(=O)[C@H](CCC(N)=O)NC(=O)[C@H](Cc2c[nH]c3ccccc23)NC(=O)[C@H]([C@@H](C)O)NC(=O)[C@H](CC(C)C)NC(=O)[C@H](Cc2c[nH]c3ccccc23)NC(=O)[C@H](CC(=O)O)NC(=O)CN(C)C(=O)[C@H](CCC(=O)O)NC1=O` [3BP-3325] (Ac-CE[Sar]DWLTWQC-NH2; linker 1-10 via mXylylene): the IC50 was 0.1 to 0.794 µM. With `CC(C)C[C@@H]1NC(=O)[C@H](Cc2c[nH]c3ccccc23)NC(=O)[C@H](CC(=O)O)NC(=O)[C@H]2CCCN2C(=O)[C@H](CCC(=O)O)NC(=O)[C@@H](NC(=O)[C@H](Cc2ccc(O)cc2)NC(=O)[C@@H](NC(=O)c2cccc(CNC(=O)CN3CCN(CC(=O)O)CCN(CC(=O)O)CCN(CC(=O)O)CC3)c2)C(C)C)CSCc2cccc(c2)CSC[C@@H](C(N)=O)NC(=O)[C@H](C)NC(=O)[C@H](Cc2c[nH]c3ccccc23)NC(=O)[C@H]([C@@H](C)O)NC1=O` [3BP-3429] ({DOTA-3Amb}-VYCE[dP]DWLTWAC-NH2; linker 3-12 via mXylylene), the IC50 was less than 0.01 µM. As to `CC(C)C[C@@H]1NC(=O)[C@H](Cc2c[nH]c3ccccc23)NC(=O)[C@H](CC(=O)O)NC(=O)[C@H]2CCCN2C(=O)[C@H](CCC(=O)O)NC(=O)[C@@H](NC(=O)[C@H](Cc2ccc(O)cc2)NC(=O)[C@@H](NC(=O)[C@H]2CC[C@H](CNC(=O)CN3CCN(CC(=O)O)CCN(CC(=O)O)CCN(CC(=O)O)CC3)CC2)C(C)C)CSCc2cccc(c2)CSC[C@@H](C(N)=O)NC(=O)[C@H](C)NC(=O)[C@H](Cc2c[nH]c3ccccc23)NC(=O)[C@H]([C@@H](C)O)NC1=O` [3BP-3430] ({DOTA-Trx}-VYCE[dP]DWLTWAC-NH2; linker 3-12 via mXylylene), the IC50 was less than 0.01 µM. Regarding `CC(C)[C@H](NC(=O)[C@H]1CC[C@H](CNC(=O)CN2CCN(CC(=O)O)CCN(CC(=O)O)CCN(CC(=O)O)CC2)CC1)C(=O)N[C@@H](Cc1ccc(O)cc1)C(=O)N[C@H]1CSCc2cccc(c2)CSC[C@@H](C(N)=O)NC(=O)[C@H](C)NC(=O)[C@H](Cc2c[nH]c3ccccc23)NC(=O)[C@H]([C@@H](C)O)NC(=O)[C@H](CC(C)(C)C)NC(=O)[C@H](Cc2c[nH]c3ccccc23)NC(=O)[C@H](CC(=O)O)NC(=O)[C@H]2CCCN2C(=O)[C@H](CCC(=O)O)NC1=O` [3BP-3431] ({DOTA-Trx}-VYCE[dP]DW[tBuAla]TWAC-NH2; linker 3-12 via mXylylene), the IC50 is less than 0.01 µM.

Values taken from patent US20250339569A1, “CARBONIC ANHYDRASE IX LIGANDS” (priority 2021, published 2025).
